According to patent US20250027130A1, “Nucleic Acid Synthesis and Sequencing Using Tethered Nucleoside Triphosphates” (The Regents of the University of California, priority 2022, published 2025):

Test system: MaPylRS
Assay: Intact tRNA mass spectrometry: acylation of Ma-tRNA^Pyl by MaPylRS
Type: biochemical, Methanomethylophilus alvus
Settings: MaPylRS 2.5 μM, Ma-tRNA^Pyl 25 μM, 37° C., 2 h; average of 3 technical replicates

`CC(C)(C)OC(=O)NCCCCC(C(=O)O)C(=O)O` [Substrate 16] was tested, and the “Yield of diacylated Ma-tRNA^Pyl” value was 0.0% and the “Yield of monoacylated Ma-tRNA^Pyl” value was 0.25%.
